Columns and labels:
Carbonic anhydrase 14 = Carbonic anhydrase 14 (Homo sapiens, UniProt Q9ULX7); experiment: Inhibition of human recombinant carbonic anhydrase 14 preincubated for 15 mins by stopped flow CO2 hydration assay
Carbonic anhydrase 1 = Carbonic anhydrase 1 (Homo sapiens, UniProt P00915); experiment: Inhibition of human recombinant carbonic anhydrase 1 preincubated for 15 mins by stopped flow CO2 hydration assay
Carbonic anhydrase 9 = Carbonic anhydrase 9 (Homo sapiens, UniProt Q16790)
Description: Inhibition of human catalytic domain of carbonic anhydrase 9 preincubated for 15 mins by stopped flow CO2 hydration assay

Carbonic anhydrase 2 = Carbonic anhydrase 2 (Homo sapiens, UniProt P00918); experiment: Inhibition of human recombinant carbonic anhydrase 2 preincubated for 15 mins by stopped flow CO2 hydration assay

Sequence of Carbonic anhydrase 14 (Q9ULX7 whole entry): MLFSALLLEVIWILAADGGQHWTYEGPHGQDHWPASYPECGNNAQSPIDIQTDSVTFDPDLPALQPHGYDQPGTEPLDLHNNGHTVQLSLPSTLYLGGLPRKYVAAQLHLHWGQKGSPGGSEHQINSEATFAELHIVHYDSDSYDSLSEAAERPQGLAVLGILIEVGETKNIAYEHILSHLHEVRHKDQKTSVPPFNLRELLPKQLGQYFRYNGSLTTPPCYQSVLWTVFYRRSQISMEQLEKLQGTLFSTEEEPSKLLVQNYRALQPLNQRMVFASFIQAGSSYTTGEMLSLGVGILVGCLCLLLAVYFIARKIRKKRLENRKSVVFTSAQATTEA
Sequence of Carbonic anhydrase 1 (P00915 whole entry): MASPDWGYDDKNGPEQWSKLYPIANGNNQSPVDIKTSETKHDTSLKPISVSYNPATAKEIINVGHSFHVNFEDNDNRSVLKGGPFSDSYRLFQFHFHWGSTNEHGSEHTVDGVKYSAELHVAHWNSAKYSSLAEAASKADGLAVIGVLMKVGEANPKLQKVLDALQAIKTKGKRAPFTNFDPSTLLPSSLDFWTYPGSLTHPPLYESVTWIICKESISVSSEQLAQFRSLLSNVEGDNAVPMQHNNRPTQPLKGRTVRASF

Ki (Carbonic anhydrase 14) | Ki (Carbonic anhydrase 1) | Ki (Carbonic anhydrase 9) | Ki (Carbonic anhydrase 2) | Compound
7.6 nM | 8.9 nM | 53.2 nM | 73.2 nM | NS(=O)(=O)Cc1ccc(NC(=O)C2CC=CCC2)cc1 (configuration not stated)
19.4 nM | 8.6 nM |  | 6.3 nM | NS(=O)(=O)Cc1ccc(NS(=O)(=O)c2ccc(Br)cc2Cl)cc1
